pIC50: −log10 of the molar value.
What was measured:
Assay type in all cases: cell-based
DLD1 = assay: MTT cell viability, DLD1 (colorectal cancer); settings: Homo sapiens, DLD-1, 48 hour incubation, read-out: Drug concentrations for 50% cell viability (IC50)
Protocol: (§1) In vitro anticancer activity of the compound of Formula I was performed using popular MTT method (Archives of Biochemistry and Biophysics, 1993, 303, […]) against lung cancer, colorectal cancer, cervical cancer, osteosarcoma, leiomyosarcoma, malignant melanoma, pancreas cancer, prostate cancer, nasopharyngeal cancer, glioma, esophageal cancer, stomach cancer, and liver cancer.
(§2) Cell Culture: A549, DLD1, SW480, LOVO, HT-29, Hela, U-20S, MES-SA, SK-MEL-28, Panc-1, DU-145, CNE, U251, Eca-109, MGC80-3, QGY-7701, BEL-7404, PLC/PRF/5, Huh-7, and SGC-7901 cells were maintained in Dulbecco's Modified Eagle Medium (DMEM) (imported from Invitrogen, Carlsbad, Calif., USA) supplemented with 10% fetal bovine serum (FBS) (Si Ji Qing, Hangzhou, China) and 1% penicillin/streptomycin/amphotercin B (imported from Invitrogen, Carlsbad, Calif., USA). Cell Viability Determination: Popular MTT method (Archives of Biochemistry and Biophysics. 1993, 303, 474-482) was used to screen the in vitro effects of the invented drugs. Briefly, 5000 to 10000 cells were inoculated per well in a 96-well plate. After overnight incubation, drug was added to the wells at final concentration of 10 μM, 5 μM, 2.5 μM, 1.25 μM, or 1 μM, 0.75 μM, 0.5 μM and 0.25 μM in complete culture medium. Each dose level covered 4 equivalent wells. After 48 hour incubation, one tenth volume of 5 mg/mL MTT (thiazolyl blue tetrazolium bromide, Sigma-Aldrich) stock solution was added, and incubation continued for 2 hours. Then medium was removed and 100 μL of isopropanol solution comprising 86% isopropanol, 4% aqueous 1N HCl and 10% aqueous solution of 10% SDS was added. The absorbance of each well at 570 nm wavelength was measured by a micro-plate reader after gentle shaking for 20 minutes. Drug concentrations of 50% cell viability (IC50) were calculated by LOGIT method.

MGC80-3 = assay: MTT cell viability, MGC80-3 (stomach cancer); settings: Homo sapiens, MGC-803, 48 hour incubation, read-out: Drug concentrations for 50% cell viability (IC50)
Protocol: as §1
as §2, with “Each dose level covered 4 equivalent wells. After 48 hour incubation, one tenth volume of 5 mg/mL MTT (thiazolyl blue tetrazolium bromide, Sigma-Aldrich) stock solution was added, and incubation continued for 2 hours. Then medium was removed and 100 μL of isopropanol solution comprising 86% isopropanol, 4% aqueous 1N HCl and 10% aqueous solution of 10% SDS was added.” left out, “Drug concentrations of 50% cell viability (IC50) were calculated by LOGIT method.” left out

Panc-1 = assay: MTT cell viability, Panc-1 (pancreatic cancer); settings: Homo sapiens, 48 hour incubation, read-out: Drug concentrations for 50% cell viability (IC50)
Protocol: as §1
as §2, with “Each dose level covered 4 equivalent wells. After 48 hour incubation, one tenth volume of 5 mg/mL MTT (thiazolyl blue tetrazolium bromide, Sigma-Aldrich) stock solution was added, and incubation continued for 2 hours. Then medium was removed and 100 μL of isopropanol solution comprising 86% isopropanol, 4% aqueous 1N HCl and 10% aqueous solution of 10% SDS was added.” left out, “Drug concentrations of 50% cell viability (IC50) were calculated by LOGIT method.” left out

SK-MEL-28 = assay: MTT cell viability, SK-MEL-28 (malignant melanoma); settings: Homo sapiens, 48 hour incubation, read-out: Drug concentrations for 50% cell viability (IC50)
Protocol: as §1
as §2, with “Each dose level covered 4 equivalent wells. After 48 hour incubation, one tenth volume of 5 mg/mL MTT (thiazolyl blue tetrazolium bromide, Sigma-Aldrich) stock solution was added, and incubation continued for 2 hours. Then medium was removed and 100 μL of isopropanol solution comprising 86% isopropanol, 4% aqueous 1N HCl and 10% aqueous solution of 10% SDS was added.” left out, “Drug concentrations of 50% cell viability (IC50) were calculated by LOGIT method.” left out

Hela = assay: MTT cell viability, Hela (cervical cancer); settings: Homo sapiens, 48 hour incubation, read-out: Drug concentrations for 50% cell viability (IC50)
Protocol: as §1
as §2, with “Each dose level covered 4 equivalent wells. After 48 hour incubation, one tenth volume of 5 mg/mL MTT (thiazolyl blue tetrazolium bromide, Sigma-Aldrich) stock solution was added, and incubation continued for 2 hours. Then medium was removed and 100 μL of isopropanol solution comprising 86% isopropanol, 4% aqueous 1N HCl and 10% aqueous solution of 10% SDS was added.” left out, “Drug concentrations of 50% cell viability (IC50) were calculated by LOGIT method.” left out

SGC-7901 = assay: MTT cell viability, SGC-7901 (stomach cancer); settings: Homo sapiens, 48 hour incubation, read-out: Drug concentrations for 50% cell viability (IC50)
Protocol: as §1
as §2, with “Each dose level covered 4 equivalent wells. After 48 hour incubation, one tenth volume of 5 mg/mL MTT (thiazolyl blue tetrazolium bromide, Sigma-Aldrich) stock solution was added, and incubation continued for 2 hours. Then medium was removed and 100 μL of isopropanol solution comprising 86% isopropanol, 4% aqueous 1N HCl and 10% aqueous solution of 10% SDS was added.” left out, “Drug concentrations of 50% cell viability (IC50) were calculated by LOGIT method.” left out

LOVO = assay: MTT cell viability, LOVO (colorectal cancer); settings: Homo sapiens, 48 hour incubation, read-out: Drug concentrations for 50% cell viability (IC50)
Protocol: as §1
as §2, with “Each dose level covered 4 equivalent wells. After 48 hour incubation, one tenth volume of 5 mg/mL MTT (thiazolyl blue tetrazolium bromide, Sigma-Aldrich) stock solution was added, and incubation continued for 2 hours. Then medium was removed and 100 μL of isopropanol solution comprising 86% isopropanol, 4% aqueous 1N HCl and 10% aqueous solution of 10% SDS was added.” left out, “Drug concentrations of 50% cell viability (IC50) were calculated by LOGIT method.” left out

Huh-7 = assay: MTT cell viability, Huh-7 (liver cancer); settings: Homo sapiens, 48 hour incubation, read-out: Drug concentrations for 50% cell viability (IC50)
Protocol: as §1
as §2, with “Each dose level covered 4 equivalent wells. After 48 hour incubation, one tenth volume of 5 mg/mL MTT (thiazolyl blue tetrazolium bromide, Sigma-Aldrich) stock solution was added, and incubation continued for 2 hours. Then medium was removed and 100 μL of isopropanol solution comprising 86% isopropanol, 4% aqueous 1N HCl and 10% aqueous solution of 10% SDS was added.” left out, “Drug concentrations of 50% cell viability (IC50) were calculated by LOGIT method.” left out

MES-SA = assay: MTT cell viability, MES-SA (leiomyosarcoma); settings: Homo sapiens, 48 hour incubation, read-out: Drug concentrations for 50% cell viability (IC50)
Protocol: as §1
as §2, with “Each dose level covered 4 equivalent wells. After 48 hour incubation, one tenth volume of 5 mg/mL MTT (thiazolyl blue tetrazolium bromide, Sigma-Aldrich) stock solution was added, and incubation continued for 2 hours. Then medium was removed and 100 μL of isopropanol solution comprising 86% isopropanol, 4% aqueous 1N HCl and 10% aqueous solution of 10% SDS was added.” left out, “Drug concentrations of 50% cell viability (IC50) were calculated by LOGIT method.” left out

BEL-7404 = assay: MTT cell viability, BEL-7404 (liver cancer); settings: Homo sapiens, 48 hour incubation, read-out: Drug concentrations for 50% cell viability (IC50)
Protocol: as §1
as §2, with “Each dose level covered 4 equivalent wells. After 48 hour incubation, one tenth volume of 5 mg/mL MTT (thiazolyl blue tetrazolium bromide, Sigma-Aldrich) stock solution was added, and incubation continued for 2 hours. Then medium was removed and 100 μL of isopropanol solution comprising 86% isopropanol, 4% aqueous 1N HCl and 10% aqueous solution of 10% SDS was added.” left out, “Drug concentrations of 50% cell viability (IC50) were calculated by LOGIT method.” left out

Eca-109 = assay: MTT cell viability, Eca-109 (esophageal cancer); settings: Homo sapiens, 48 hour incubation, read-out: Drug concentrations for 50% cell viability (IC50)
Protocol: as §1
as §2, with “Each dose level covered 4 equivalent wells. After 48 hour incubation, one tenth volume of 5 mg/mL MTT (thiazolyl blue tetrazolium bromide, Sigma-Aldrich) stock solution was added, and incubation continued for 2 hours. Then medium was removed and 100 μL of isopropanol solution comprising 86% isopropanol, 4% aqueous 1N HCl and 10% aqueous solution of 10% SDS was added.” left out, “Drug concentrations of 50% cell viability (IC50) were calculated by LOGIT method.” left out

SW480 = assay: MTT cell viability, SW480 (colorectal cancer); settings: Homo sapiens, 48 hour incubation, read-out: Drug concentrations for 50% cell viability (IC50)
Protocol: as §1
as §2, with “Each dose level covered 4 equivalent wells. After 48 hour incubation, one tenth volume of 5 mg/mL MTT (thiazolyl blue tetrazolium bromide, Sigma-Aldrich) stock solution was added, and incubation continued for 2 hours. Then medium was removed and 100 μL of isopropanol solution comprising 86% isopropanol, 4% aqueous 1N HCl and 10% aqueous solution of 10% SDS was added.” left out, “Drug concentrations of 50% cell viability (IC50) were calculated by LOGIT method.” left out

A549 = assay: MTT cell viability, A549 (lung cancer); settings: Homo sapiens, 48 hour incubation, read-out: Drug concentrations for 50% cell viability (IC50)
Protocol: as §1, §2

U251 = assay: MTT cell viability, U251 (glioma); settings: Homo sapiens, U-251, 48 hour incubation, read-out: Drug concentrations for 50% cell viability (IC50)
Protocol: as §1
as §2, with “Each dose level covered 4 equivalent wells. After 48 hour incubation, one tenth volume of 5 mg/mL MTT (thiazolyl blue tetrazolium bromide, Sigma-Aldrich) stock solution was added, and incubation continued for 2 hours. Then medium was removed and 100 μL of isopropanol solution comprising 86% isopropanol, 4% aqueous 1N HCl and 10% aqueous solution of 10% SDS was added.” left out, “Drug concentrations of 50% cell viability (IC50) were calculated by LOGIT method.” left out

PLC/PRF/5 = assay: MTT cell viability, PLC/PRF/5 (liver cancer); settings: Homo sapiens, 48 hour incubation, read-out: Drug concentrations for 50% cell viability (IC50)
Protocol: as §1
as §2, with “Each dose level covered 4 equivalent wells. After 48 hour incubation, one tenth volume of 5 mg/mL MTT (thiazolyl blue tetrazolium bromide, Sigma-Aldrich) stock solution was added, and incubation continued for 2 hours. Then medium was removed and 100 μL of isopropanol solution comprising 86% isopropanol, 4% aqueous 1N HCl and 10% aqueous solution of 10% SDS was added.” left out, “Drug concentrations of 50% cell viability (IC50) were calculated by LOGIT method.” left out

QGY-7701 = assay: MTT cell viability, QGY-7701 (liver cancer); settings: QGY7701, 48 hour incubation, read-out: Drug concentrations for 50% cell viability (IC50)
Protocol: as §1
as §2, with “Each dose level covered 4 equivalent wells. After 48 hour incubation, one tenth volume of 5 mg/mL MTT (thiazolyl blue tetrazolium bromide, Sigma-Aldrich) stock solution was added, and incubation continued for 2 hours. Then medium was removed and 100 μL of isopropanol solution comprising 86% isopropanol, 4% aqueous 1N HCl and 10% aqueous solution of 10% SDS was added.” left out, “Drug concentrations of 50% cell viability (IC50) were calculated by LOGIT method.” left out

CNE = assay: MTT cell viability, CNE (nasopharyngeal cancer); settings: Homo sapiens, 48 hour incubation, read-out: Drug concentrations for 50% cell viability (IC50)
Protocol: as §1
as §2, with “Each dose level covered 4 equivalent wells. After 48 hour incubation, one tenth volume of 5 mg/mL MTT (thiazolyl blue tetrazolium bromide, Sigma-Aldrich) stock solution was added, and incubation continued for 2 hours. Then medium was removed and 100 μL of isopropanol solution comprising 86% isopropanol, 4% aqueous 1N HCl and 10% aqueous solution of 10% SDS was added.” left out, “Drug concentrations of 50% cell viability (IC50) were calculated by LOGIT method.” left out

DU-145 = assay: MTT cell viability, DU-145 (prostate cancer); settings: Homo sapiens, 48 hour incubation, read-out: Drug concentrations for 50% cell viability (IC50)
Protocol: as §1, §2

U-20S = assay: MTT cell viability, U-20S (osteosarcoma); settings: 48 hour incubation, read-out: Drug concentrations for 50% cell viability (IC50)
Protocol: as §1, §2

HT-29 = assay: MTT cell viability, HT-29 (colorectal cancer); settings: Homo sapiens, 48 hour incubation, read-out: Drug concentrations for 50% cell viability (IC50)
Protocol: as §1
as §2, with “Each dose level covered 4 equivalent wells. After 48 hour incubation, one tenth volume of 5 mg/mL MTT (thiazolyl blue tetrazolium bromide, Sigma-Aldrich) stock solution was added, and incubation continued for 2 hours. Then medium was removed and 100 μL of isopropanol solution comprising 86% isopropanol, 4% aqueous 1N HCl and 10% aqueous solution of 10% SDS was added.” left out, “Drug concentrations of 50% cell viability (IC50) were calculated by LOGIT method.” left out

| pIC50 (DLD1) | pIC50 (MGC80-3) | pIC50 (Panc-1) | pIC50 (SK-MEL-28) | pIC50 (Hela) | pIC50 (SGC-7901) | pIC50 (LOVO) | pIC50 (Huh-7) | pIC50 (MES-SA) | pIC50 (BEL-7404) | pIC50 (Eca-109) | pIC50 (SW480) | pIC50 (A549) | pIC50 (U251) | pIC50 (PLC/PRF/5) | pIC50 (QGY-7701) | pIC50 (CNE) | pIC50 (DU-145) | pIC50 (U-20S) | pIC50 (HT-29) | SMILES |
| --- | --- | --- | --- | --- | --- | --- | --- | --- | --- | --- | --- | --- | --- | --- | --- | --- | --- | --- | --- | --- |
| 6.54 | 5.92 | 5.80 | 6.66 | 5.92 | 5.60 | 5.67 | 5.60 | 5.92 | 5.95 | 5.46 | 5.93 | 5.60 | 6.00 | 5.60 | 5.46 | 5.87 | 6.37 | 6.37 | 6.14 | CS(=O)(=O)c1cc2c(o1)C(=O)c1ccccc1C2=O [Compound I, 2-methylsulfonyl-naphtho[2,3-b]furan-4,9-dione] |
| 6.55 | 5.92 | 5.90 | 6.62 | 5.83 | 5.60 | 5.34 | 5.60 | 6.00 | 5.96 | 5.42 | 5.90 | 5.60 | 6.00 | 5.70 | 5.60 | 5.90 | 6.30 | 6.41 | 6.11 | C[S+]([O-])c1cc2c(o1)C(=O)c1ccccc1C2=O (stereo not drawn) [Compound II, 2-methylsulfinyl-naphtho[2,3-b]furan-4,9-dione] |
| 5.60 | – | – | – | – | – | – | – | – | – | – | – | < 5.00 | – | – | – | – | 5.30 | 5.44 | – | CS(=O)(=O)c1oc2c(c1-c1ccccc1)C(=O)c1ccccc1C2=O [Compound XV, 2-methylsulfonyl-3-phenyl-naphtho[2,3-b]furan-4,9-dione] |
| 6.00 | – | – | – | – | – | – | – | – | – | – | – | 5.16 | – | – | – | – | 5.49 | 5.90 | – | C[S+]([O-])c1oc2c(c1-c1ccccc1)C(=O)c1ccccc1C2=O (stereo not drawn) [Compound XVI, 2-methylsulfinyl-3-phenyl-naphtho[2,3-b]furan-4,9-dione] |

From patent US8871802B2, “Naphthoquinones for disease therapies” (Zhoushan HaiZhongZhou Xinsheng Pharmaceuticals Co., Ltd., priority 2010, dated 2014)
